Source: paper PMC3962378, “Molecular Mechanism of Strict Substrate Specificity of an Extradiol Dioxygenase, DesB, Derived from Sphingobium sp. SYK-6” (PLoS ONE, 2014)

Target: T1, DesB (Sphingomonas paucimobilis, UniProt Q5NTE5)
T1 construct: overexpressed in E. coli, purified to near homogeneity; swapped homodimer with active sites at the subunit interface; 418 residues; Fe(II) form
T1 sequence (Q5NTE5 1-418): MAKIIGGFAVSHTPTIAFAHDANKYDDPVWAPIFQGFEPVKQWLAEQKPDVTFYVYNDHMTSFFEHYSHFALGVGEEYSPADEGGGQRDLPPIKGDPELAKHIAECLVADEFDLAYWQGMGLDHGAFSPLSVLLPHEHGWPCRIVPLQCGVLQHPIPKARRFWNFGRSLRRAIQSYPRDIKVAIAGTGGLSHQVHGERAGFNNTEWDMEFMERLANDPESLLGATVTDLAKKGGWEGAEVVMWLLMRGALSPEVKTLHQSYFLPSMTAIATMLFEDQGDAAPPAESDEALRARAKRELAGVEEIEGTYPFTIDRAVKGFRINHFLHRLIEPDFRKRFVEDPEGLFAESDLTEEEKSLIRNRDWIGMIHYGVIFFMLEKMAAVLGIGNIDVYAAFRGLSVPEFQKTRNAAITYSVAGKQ
Test: X-ray crystal structure (soak)
Assay type: binding
Settings: anaerobic, pH 7.75, Fe(II), active site, 2.40 A

Structure (SMILES) | X-ray crystal structure (soak) (10 mM PCA soak, flipped non-productive binding, not turned over) | X-ray crystal structure (soak) (10 mM gallate soak, further complexes 3WKU, 3WPM (co-crystal), 3WR3, 3WR4)
O=C(O)c1ccc(O)c(O)c1 [PCA] | bound PCA was found in the active site of the anaerobic DesB-PCA complex | 
O=C(O)c1cc(O)c(O)c(O)c1 [gallate] |  | gallate is bound to the active site through several hydrogen bonds
